{"source": "paper PMC3646991", "about": "(Investigational new drugs, 2012)", "key": {"[1]": {"details": "cited from earlier work"}, "[2]": {"test_system": "human ribonucleotide reductase M2 subunit (hRRM2)", "experiment": "Circulating serum hRRM2 by ELISA", "type": "in vivo", "details": "during treatment cycles 1 and 2, 21 of 28 patients"}, "[3]": {"test_system": "patients with advanced solid tumors", "experiment": "Phase I dose escalation: dose-limiting toxicities, MTD and adverse events"}, "tumor cell lines": {"test_system": "tumor cell lines", "details": "read-out: in vitro IC50 for tumor cell lines; cited from earlier work"}, "advanced solid tumors": {"test_system": "advanced solid tumors", "experiment": "Tumor response", "type": "in vivo, human"}, "[4]": {"details": "triapine 0.01–1 mg/mL in 0.9 % sodium chloride, protected from light, room temperature or 2–8°C; cited from earlier work"}, "[5]": {"experiment": "Steady-state plasma triapine", "type": "in vivo, human", "details": "for clearance: human, plasma"}, "[6]": {"test_system": "patients with advanced solid tumors", "details": "human, in vivo, 4 weeks"}, "[7]": {"details": "36 patients, all dose levels, triapine + FDR gemcitabine"}, "[8]": {"details": "of 15 patients with stable disease"}, "[9]": {"details": "of 30 evaluable patients, triapine + FDR gemcitabine"}, "[10]": {"details": "of 30 evaluable patients, triapine + FDR gemcitabine, RECIST 1.0"}, "[11]": {"details": "Arm A and B combined, dose 160, N=2, individual values"}}, "note": "Several values for one entry are separate records, joined by “and”; a condition that tells them apart may be missing. Equal entries are not always repeated."}
{"smiles": "Nc1ccn([C@@H]2O[C@H](CO)[C@@H](O)C2(F)F)c(=O)n1", "note": "[gemcitabine]", "values": [{"measurement": "steady-state plasma levels", "setting": "[1]; gemcitabine at fixed-dose-rate 10 mg/m^2/min", "value": "15 to 20", "unit": "µmol/L"}, {"measurement": "plasma gemcitabine concentration above which dFdCTP accumulation is saturated", "setting": "[1]; peripheral blood mononuclear cells and circulating leukemic blasts", "value": "15 to 20", "unit": "µmol/L"}]}
{"smiles": "NC(=S)NN=Cc1ncccc1N", "note": "[triapine, 3-Aminopyridine-2-carboxaldehyde thiosemicarbazone]", "values": [{"measurement": "patients with decline in hRRM2 levels", "setting": "[2]", "value": 75, "unit": "%"}, {"measurement": "Flu-Like Syndrome, Grade 1/2", "setting": "[3]; [7]", "value": "4 (11) N (%)"}, {"measurement": "Flu-Like Syndrome, Grade 3", "setting": "[3]; [7]", "value": "0 N (%)"}, {"measurement": "Flu-Like Syndrome, Grade 4", "setting": "[3]; [7]", "value": "0 N (%)"}, {"measurement": "Infection, Grade 3", "setting": "[3]; [7]", "value": "3 (8) N (%)"}, {"measurement": "Infection, Grade 4", "setting": "[3]; [7]", "value": "0 N (%)"}, {"measurement": "MTD (maximum tolerated dose)", "setting": "[3]; triapine 24-hour infusion immediately followed by gemcitabine 1000 mg/m^2 (100-minute infusion), every 2 weeks of a 4-week cycle", "value": 90, "unit": "mg"}, {"measurement": "IC50", "setting": "tumor cell lines", "value": "1000 to 2000", "unit": "nM"}, {"measurement": "median time to progression", "setting": "advanced solid tumors; 15 patients with stable disease, 95 % CI 84–115 days", "value": 111, "unit": "days"}, {"measurement": "disease control rate", "setting": "advanced solid tumors; 30 evaluable patients, SD + PR, triapine + FDR gemcitabine", "value": 53, "unit": "%"}, {"measurement": "patients with prolonged stable disease more than 3 months", "setting": "advanced solid tumors; [8]", "value": 12, "unit": "patients"}, {"measurement": "stable-disease patients who had previously progressed on gemcitabine", "setting": "advanced solid tumors; [8]", "value": 7, "unit": "patients"}, {"measurement": "partial response (number of patients)", "setting": "advanced solid tumors; [9]", "value": 1, "unit": "patients"}, {"measurement": "progressive disease (number of patients)", "setting": "advanced solid tumors; [9]", "value": 14, "unit": "patients"}, {"measurement": "stable disease (number of patients)", "setting": "advanced solid tumors; [9]", "value": 15, "unit": "patients"}, {"measurement": "partial response", "setting": "advanced solid tumors; [10]", "value": 3, "unit": "%"}, {"measurement": "stable disease", "setting": "advanced solid tumors; [10]", "value": 50, "unit": "%"}, {"measurement": "median time to tumor progression", "setting": "advanced solid tumors; patients with SD", "value": "~4", "unit": "months"}, {"measurement": "stability of admixture", "setting": "[4]", "value": 96, "unit": "h"}, {"measurement": "Css", "setting": "[5]; Arm A and B combined, 31 patients, 75 to 160 mg over 24-hour i.v. infusion Day 1, mean ± SD", "value": "400 ± 140", "unit": "nM"}, {"measurement": "Css", "setting": "[5]; Arm A and B combined, dose 75, N=5, mean ± SD", "value": "370 ± 50", "unit": "nM"}, {"measurement": "Css", "setting": "[5]; Arm A and B combined, dose 90, N=15, mean ± SD", "value": "380 ± 180", "unit": "nM"}, {"measurement": "Css", "setting": "[5]; Arm A and B combined, dose 120, N=9, mean ± SD", "value": "440 ± 120", "unit": "nM"}, {"measurement": "CL", "setting": "[5]; [11]", "value": 42.80, "unit": "L/h"}, {"measurement": "Css", "setting": "[5]; [11]", "value": "520 nM and 460 nM"}, {"measurement": "Css (range)", "setting": "[5]; Arm A, 75 to 160 mg", "value": "240 to 820", "unit": "nM"}, {"measurement": "Css", "setting": "[5]; Arm A, all doses 75 to 160 mg, mean ± SD", "value": "430 ± 140", "unit": "nM"}, {"measurement": "Css", "setting": "[5]; Arm A, dose 75 (head prints mg/m^2), 24-h i.v. infusion, day 1 cycle 1, N=1", "value": 410, "unit": "nM"}, {"measurement": "Css", "setting": "[5]; Arm A, dose 90, 24-h i.v. infusion, N=5, mean ± SD", "value": "450 ± 230", "unit": "nM"}, {"measurement": "Css", "setting": "[5]; Arm A, dose 120, 24-h i.v. infusion, N=5, mean ± SD", "value": "390 ± 90", "unit": "nM"}, {"measurement": "Css", "setting": "[5]; Arm A, dose 160, 24-h i.v. infusion, N=2, individual values", "value": "520 nM and 460 nM"}, {"measurement": "CL", "setting": "[5]; Arm A, dose 160, N=2, individual values", "value": 42.80, "unit": "L/h"}, {"measurement": "Css (range)", "setting": "[5]; Arm B, 75 to 120 mg", "value": "190 to 720", "unit": "nM"}, {"measurement": "Css", "setting": "[5]; Arm B, all doses 75 to 120 mg, mean ± SD", "value": "380 ± 140", "unit": "nM"}, {"measurement": "Css", "setting": "[5]; Arm B, dose 75, 24-h i.v. infusion, N=4, mean ± SD", "value": "360 ± 50", "unit": "nM"}, {"measurement": "Css", "setting": "[5]; Arm B, dose 90, 24-h i.v. infusion, N=10, mean ± SD", "value": "350 ± 150", "unit": "nM"}, {"measurement": "Css", "setting": "[5]; Arm B, dose 120, 24-h i.v. infusion, N=4, mean ± SD", "value": "470 ± 170", "unit": "nM"}, {"measurement": "mean Css", "setting": "[5]; females, n = 18", "value": "440 ± 160", "unit": "nM"}, {"measurement": "clearance", "setting": "[5]; intravenous, 75 mg, CL, Arm B, dose 75, N=4, mean ± SD", "value": 431, "unit": "mL/min"}, {"measurement": "clearance", "setting": "[5]; intravenous, 90 mg, CL, Arm A, dose 90, N=5, mean ± SD", "value": 497, "unit": "mL/min"}, {"measurement": "clearance", "setting": "[5]; intravenous, 90 mg, CL, Arm B, dose 90, N=10, mean ± SD", "value": 613, "unit": "mL/min"}, {"measurement": "clearance", "setting": "[5]; intravenous, 120 mg, CL, Arm A and B combined, dose 120, N=9, mean ± SD", "value": 596, "unit": "mL/min"}, {"measurement": "clearance", "setting": "[5]; intravenous, 120 mg, CL, Arm A, dose 120, N=5, mean ± SD", "value": 653, "unit": "mL/min"}, {"measurement": "clearance", "setting": "[5]; intravenous, 120 mg, CL, Arm B, dose 120, N=4, mean ± SD", "value": 560, "unit": "mL/min"}, {"measurement": "clearance", "setting": "[5]; intravenous, 160 mg, CL, Arm A, dose 160, N=2, individual values", "value": 635, "unit": "mL/min"}, {"measurement": "clearance", "setting": "[5]; intravenous, CL (range), Arm A and B combined, 31 patients, 75 to 160 mg", "value": "226 to 899", "unit": "mL/min"}, {"measurement": "clearance", "setting": "[5]; intravenous, CL (range), Arm A, 75 to 160 mg", "value": "226 to 804", "unit": "mL/min"}, {"measurement": "clearance", "setting": "[5]; intravenous, CL (range), Arm B, 75 to 120 mg", "value": "265 to 899", "unit": "mL/min"}, {"measurement": "clearance", "setting": "[5]; intravenous, CL, Arm A, all doses 75 to 160 mg, mean ± SD", "value": 580, "unit": "mL/min"}, {"measurement": "clearance", "setting": "[5]; intravenous, CL, Arm B, all doses 75 to 120 mg, mean ± SD", "value": 561, "unit": "mL/min"}, {"measurement": "clearance", "setting": "[5]; iv, CL, Arm A and B combined, 31 patients, 75 to 160 mg over 24-hour i.v. infusion Day 1, mean ± SD", "value": 562, "unit": "mL/min"}, {"measurement": "mean Css", "setting": "[5]; males, n = 13", "value": "330 ± 80", "unit": "nM"}, {"measurement": "variability of Css and CL (coefficient of variation)", "setting": "[5]; within and between dose groups", "value": "approximately 30%"}, {"measurement": "recommended phase II dose (RP2D)", "setting": "[6]", "value": 90, "unit": "mg"}]}
